From US20060264447A1, “Fungicidal mixtures for controlling rice pathogens” (priority 2003, published 2006)

Tested on: Cochliobolus miyabeanus
Test: Activity against brown spot of rice caused by Cochliobolus miyabeanus, protective application
Format: in vivo
Conditions: individual active compound, rice seedlings Tai-Nong 67, protective spray, rated after six days
Description: The active compounds, separately or jointly, were prepared as a stock solution with 0.25% by weight of active compound in acetone or DMSO. 1% by weight of the emulsifier Uniperol® EL (wetting agent having emulsifying and dispersing action based on ethoxylated alkylphenols) was added to this solution, and the solution was diluted with water to the desired concentration.
Leaves of potted rice seedlings of the cultivar “Tai-Nong 67” were sprayed to runoff point with an aqueous suspension of the concentration of active compound stated below. The next day, the plants were inoculated with an aqueous spore suspension of Cochliobolus miyabeanus. The test plants were then placed in climatized chambers at 22-24° C. and 95-99% relative atmospheric humidity for six days. The extent of the development of the infection on the leaves was then determined visually.
Evaluation is carried out by determining the percentage of infected plants. These percentages were converted into efficacies.
The efficacy (E) is calculated as follows using Abbot's formula: E=(1−α/β)·100 α corresponds to the fungicidal infection of the treated plants in % and β corresponds to the fungicidal infection of the untreated (control) plants in %
An efficacy of 0 means that the infection level of the treated plants corresponds to that of the untreated control plants; an efficacy of 100 means that the treated plants are not infected.
The expected efficacies of mixtures of active compounds are determined using Colby's formula (Colby, R. S. Weeds, 15, 20-22, 1967) and compared with the observed efficacies.
Colby's formula: E=x+y−x·y/100 • E expected efficacy, expressed in % of the untreated control, when using the mixture of the active compounds A and B at the concentrations a and b • x efficacy, expressed in % of the untreated control, when using the active compound A at the concentration a • y efficacy, expressed in % of the untreated control, when using the active compound B at the concentration b

| SMILES | Efficacy in % of the untreated control (4 ppm in the spray liquor) [%] | Efficacy in % of the untreated control (16 ppm in the spray liquor) [%] |
| --- | --- | --- |
| C[C@H](Nc1c(-c2c(F)cc(F)cc2F)c(Cl)nc2ncnn12)C(F)(F)F [B] | 5 | 41 |
| CC1CCN(c2c(-c3c(F)cc(F)cc3F)c(Cl)nc3ncnn23)CC1 [compound I, 5-chloro-7-(4-methylpiperidin-1-yl)-6-(2,4,6-trifluorophenyl)-[1,2,4]triazolo[1,5-a]pyrimidine] | 5 | 17 |
| CC1CCN(c2c(-c3c(F)cccc3Cl)c(Cl)nc3ncnn23)CC1 [A] | 29 | 53 |
| O=[N+]([O-])c1cc(C(F)(F)F)c(Cl)c([N+](=O)[O-])c1Nc1ncc(C(F)(F)F)cc1Cl [compound II, 3-chloro-N-[3-chloro-2,6-dinitro-4-(trifluoromethyl)phenyl]-5-(trifluoromethyl)-2-pyridinamine] | 5 | 17 |
